Test results published in ChEMBL document CHEMBL5724914, “Linking interpersonal differences in gut microbiota composition and drug biotransformation activity” (2024).

Conditions: human gut metagenome, 24 h, 2 µM
Also: call rule not given here.

SMILES	Bacterial Biotransformation
CNCCC(Oc1ccc(C(F)(F)F)cc1)c1ccccc1 (stereo not given) [FLUOXETINE]	Compound NOT metabolized
CCc1nc(N)nc(N)c1-c1ccc(Cl)cc1 [PYRIMETHAMINE]	Compound NOT metabolized
Cc1nc2n(c(=O)c1CCN1CCC(c3noc4cc(F)ccc34)CC1)CCCC2 [RISPERIDONE]	Compound metabolized
CCCC(=O)Nc1ccc(OCC(O)CNC(C)C)c(C(C)=O)c1 (stereo not given) [ACEBUTOLOL]	Compound NOT metabolized

Test: (§1) The drug is tested on WLS-310 corresponding to human gut metagenome with ENA study accession number: PRJEB37062 and ENA sample accession number: ERS12561785 for biotransformation under anaerobic condition. The drug concentrations were measured over 9 timepoints collected between 0 and 24 hours of incubation by liquid-chromatography-coupled mass spectrometry (LC–MS)
Conditions: 2 µM

SMILES	Bacterial Biotransformation
CNCCC(Oc1ccc(C(F)(F)F)cc1)c1ccccc1 (stereo not given) [FLUOXETINE]	Compound NOT metabolized
CCc1nc(N)nc(N)c1-c1ccc(Cl)cc1 [PYRIMETHAMINE]	Compound NOT metabolized
Cc1nc2n(c(=O)c1CCN1CCC(c3noc4cc(F)ccc34)CC1)CCCC2 [RISPERIDONE]	Compound metabolized
CCCC(=O)Nc1ccc(OCC(O)CNC(C)C)c(C(C)=O)c1 (stereo not given) [ACEBUTOLOL]	Compound metabolized

Conditions: human gut metagenome, 24 h, 2 µM
Remark: another data set of the same source

SMILES	Bacterial Biotransformation
CNCCC(Oc1ccc(C(F)(F)F)cc1)c1ccccc1 (stereo not given) [FLUOXETINE]	Compound metabolized
CCc1nc(N)nc(N)c1-c1ccc(Cl)cc1 [PYRIMETHAMINE]	Compound NOT metabolized
Cc1nc2n(c(=O)c1CCN1CCC(c3noc4cc(F)ccc34)CC1)CCCC2 [RISPERIDONE]	Compound metabolized
CCCC(=O)Nc1ccc(OCC(O)CNC(C)C)c(C(C)=O)c1 (stereo not given) [ACEBUTOLOL]	Compound metabolized

Test: as §1, with “Z-025” for “WLS-310”, “rabbit” for “human”, “ERS12561824” for “ERS12561785”
Conditions: 2 µM

SMILES	Bacterial Biotransformation
CNCCC(Oc1ccc(C(F)(F)F)cc1)c1ccccc1 (stereo not given) [FLUOXETINE]	Compound NOT metabolized
CCc1nc(N)nc(N)c1-c1ccc(Cl)cc1 [PYRIMETHAMINE]	Compound NOT metabolized
Cc1nc2n(c(=O)c1CCN1CCC(c3noc4cc(F)ccc34)CC1)CCCC2 [RISPERIDONE]	Compound metabolized
CCCC(=O)Nc1ccc(OCC(O)CNC(C)C)c(C(C)=O)c1 (stereo not given) [ACEBUTOLOL]	Compound NOT metabolized

Conditions: human gut metagenome, 24 h, 2 µM
Remark: another data set of the same source

SMILES	Bacterial Biotransformation
CNCCC(Oc1ccc(C(F)(F)F)cc1)c1ccccc1 (stereo not given) [FLUOXETINE]	Compound NOT metabolized
CCc1nc(N)nc(N)c1-c1ccc(Cl)cc1 [PYRIMETHAMINE]	Compound metabolized
Cc1nc2n(c(=O)c1CCN1CCC(c3noc4cc(F)ccc34)CC1)CCCC2 [RISPERIDONE]	Compound metabolized
CCCC(=O)Nc1ccc(OCC(O)CNC(C)C)c(C(C)=O)c1 (stereo not given) [ACEBUTOLOL]	Compound metabolized

Test: as §1, with “Z-016” for “WLS-310”, “mouse” for “human”, “ERS12561815” for “ERS12561785”
Conditions: 2 µM

SMILES	Bacterial Biotransformation
CNCCC(Oc1ccc(C(F)(F)F)cc1)c1ccccc1 (stereo not given) [FLUOXETINE]	Compound NOT metabolized
CCc1nc(N)nc(N)c1-c1ccc(Cl)cc1 [PYRIMETHAMINE]	Compound NOT metabolized
Cc1nc2n(c(=O)c1CCN1CCC(c3noc4cc(F)ccc34)CC1)CCCC2 [RISPERIDONE]	Compound metabolized
CCCC(=O)Nc1ccc(OCC(O)CNC(C)C)c(C(C)=O)c1 (stereo not given) [ACEBUTOLOL]	Compound NOT metabolized

Conditions: human gut metagenome, 24 h, 2 µM
Remark: another data set of the same source

SMILES	Bacterial Biotransformation
CNCCC(Oc1ccc(C(F)(F)F)cc1)c1ccccc1 (stereo not given) [FLUOXETINE]	Compound metabolized
CCc1nc(N)nc(N)c1-c1ccc(Cl)cc1 [PYRIMETHAMINE]	Compound metabolized
Cc1nc2n(c(=O)c1CCN1CCC(c3noc4cc(F)ccc34)CC1)CCCC2 [RISPERIDONE]	Compound metabolized
CCCC(=O)Nc1ccc(OCC(O)CNC(C)C)c(C(C)=O)c1 (stereo not given) [ACEBUTOLOL]	Compound metabolized

Test: as §1, with “Z-030” for “WLS-310”, “mouse” for “human”, “ERS12561829” for “ERS12561785”
Conditions: 2 µM

SMILES	Bacterial Biotransformation
CNCCC(Oc1ccc(C(F)(F)F)cc1)c1ccccc1 (stereo not given) [FLUOXETINE]	Compound NOT metabolized
CCc1nc(N)nc(N)c1-c1ccc(Cl)cc1 [PYRIMETHAMINE]	Compound NOT metabolized
Cc1nc2n(c(=O)c1CCN1CCC(c3noc4cc(F)ccc34)CC1)CCCC2 [RISPERIDONE]	Compound NOT metabolized
CCCC(=O)Nc1ccc(OCC(O)CNC(C)C)c(C(C)=O)c1 (stereo not given) [ACEBUTOLOL]	Compound NOT metabolized

Test: as §1, with “Z-014” for “WLS-310”, “rat” for “human”, “ERS12561814” for “ERS12561785”
Conditions: 2 µM

SMILES	Bacterial Biotransformation
CNCCC(Oc1ccc(C(F)(F)F)cc1)c1ccccc1 (stereo not given) [FLUOXETINE]	Compound NOT metabolized
CCc1nc(N)nc(N)c1-c1ccc(Cl)cc1 [PYRIMETHAMINE]	Compound NOT metabolized
Cc1nc2n(c(=O)c1CCN1CCC(c3noc4cc(F)ccc34)CC1)CCCC2 [RISPERIDONE]	Compound metabolized
CCCC(=O)Nc1ccc(OCC(O)CNC(C)C)c(C(C)=O)c1 (stereo not given) [ACEBUTOLOL]	Compound NOT metabolized

Test: as §1, with “Z-019” for “WLS-310”, “rat” for “human”, “ERS12561818” for “ERS12561785”
Conditions: 2 µM

SMILES	Bacterial Biotransformation
CNCCC(Oc1ccc(C(F)(F)F)cc1)c1ccccc1 (stereo not given) [FLUOXETINE]	Compound NOT metabolized
CCc1nc(N)nc(N)c1-c1ccc(Cl)cc1 [PYRIMETHAMINE]	Compound NOT metabolized
Cc1nc2n(c(=O)c1CCN1CCC(c3noc4cc(F)ccc34)CC1)CCCC2 [RISPERIDONE]	Compound NOT metabolized
CCCC(=O)Nc1ccc(OCC(O)CNC(C)C)c(C(C)=O)c1 (stereo not given) [ACEBUTOLOL]	Compound NOT metabolized

Test: as §1, with “Z-018” for “WLS-310”, “pig” for “human”, “ERS12561817” for “ERS12561785”
Conditions: 2 µM

SMILES	Bacterial Biotransformation
CNCCC(Oc1ccc(C(F)(F)F)cc1)c1ccccc1 (stereo not given) [FLUOXETINE]	Compound NOT metabolized
CCc1nc(N)nc(N)c1-c1ccc(Cl)cc1 [PYRIMETHAMINE]	Compound NOT metabolized
Cc1nc2n(c(=O)c1CCN1CCC(c3noc4cc(F)ccc34)CC1)CCCC2 [RISPERIDONE]	Compound metabolized
CCCC(=O)Nc1ccc(OCC(O)CNC(C)C)c(C(C)=O)c1 (stereo not given) [ACEBUTOLOL]	Compound NOT metabolized

Conditions: human gut metagenome, 24 h, 2 µM
Remark: another data set of the same source

SMILES	Bacterial Biotransformation
CNCCC(Oc1ccc(C(F)(F)F)cc1)c1ccccc1 (stereo not given) [FLUOXETINE]	Compound NOT metabolized
CCc1nc(N)nc(N)c1-c1ccc(Cl)cc1 [PYRIMETHAMINE]	Compound NOT metabolized
Cc1nc2n(c(=O)c1CCN1CCC(c3noc4cc(F)ccc34)CC1)CCCC2 [RISPERIDONE]	Compound metabolized
CCCC(=O)Nc1ccc(OCC(O)CNC(C)C)c(C(C)=O)c1 (stereo not given) [ACEBUTOLOL]	Compound metabolized

Conditions: human gut metagenome, 24 h, 2 µM
Remark: another data set of the same source

SMILES	Bacterial Biotransformation
CNCCC(Oc1ccc(C(F)(F)F)cc1)c1ccccc1 (stereo not given) [FLUOXETINE]	Compound NOT metabolized
CCc1nc(N)nc(N)c1-c1ccc(Cl)cc1 [PYRIMETHAMINE]	Compound NOT metabolized
Cc1nc2n(c(=O)c1CCN1CCC(c3noc4cc(F)ccc34)CC1)CCCC2 [RISPERIDONE]	Compound metabolized
CCCC(=O)Nc1ccc(OCC(O)CNC(C)C)c(C(C)=O)c1 (stereo not given) [ACEBUTOLOL]	Compound metabolized

Conditions: human gut metagenome, 24 h, 2 µM
Remark: another data set of the same source

SMILES	Bacterial Biotransformation
CNCCC(Oc1ccc(C(F)(F)F)cc1)c1ccccc1 (stereo not given) [FLUOXETINE]	Compound NOT metabolized
CCc1nc(N)nc(N)c1-c1ccc(Cl)cc1 [PYRIMETHAMINE]	Compound NOT metabolized
Cc1nc2n(c(=O)c1CCN1CCC(c3noc4cc(F)ccc34)CC1)CCCC2 [RISPERIDONE]	Compound NOT metabolized
CCCC(=O)Nc1ccc(OCC(O)CNC(C)C)c(C(C)=O)c1 (stereo not given) [ACEBUTOLOL]	Compound NOT metabolized

Test: as §1, with “Z-023” for “WLS-310”, “to” for “to human gut”, “ERS12561822” for “ERS12561785”
Conditions: 2 µM

SMILES	Bacterial Biotransformation
CNCCC(Oc1ccc(C(F)(F)F)cc1)c1ccccc1 (stereo not given) [FLUOXETINE]	Compound NOT metabolized
CCc1nc(N)nc(N)c1-c1ccc(Cl)cc1 [PYRIMETHAMINE]	Compound NOT metabolized
Cc1nc2n(c(=O)c1CCN1CCC(c3noc4cc(F)ccc34)CC1)CCCC2 [RISPERIDONE]	Compound metabolized
CCCC(=O)Nc1ccc(OCC(O)CNC(C)C)c(C(C)=O)c1 (stereo not given) [ACEBUTOLOL]	Compound metabolized

Test: as §1, with “WLS-086” for “WLS-310”, “ERS12561752” for “ERS12561785”
Conditions: 2 µM

SMILES	Bacterial Biotransformation
CNCCC(Oc1ccc(C(F)(F)F)cc1)c1ccccc1 (stereo not given) [FLUOXETINE]	Compound NOT metabolized
CCc1nc(N)nc(N)c1-c1ccc(Cl)cc1 [PYRIMETHAMINE]	Compound metabolized
Cc1nc2n(c(=O)c1CCN1CCC(c3noc4cc(F)ccc34)CC1)CCCC2 [RISPERIDONE]	Compound metabolized
CCCC(=O)Nc1ccc(OCC(O)CNC(C)C)c(C(C)=O)c1 (stereo not given) [ACEBUTOLOL]	Compound metabolized

Conditions: human gut metagenome, 24 h, 2 µM
Remark: another data set of the same source

SMILES	Bacterial Biotransformation
CNCCC(Oc1ccc(C(F)(F)F)cc1)c1ccccc1 (stereo not given) [FLUOXETINE]	Compound NOT metabolized
CCc1nc(N)nc(N)c1-c1ccc(Cl)cc1 [PYRIMETHAMINE]	Compound NOT metabolized
Cc1nc2n(c(=O)c1CCN1CCC(c3noc4cc(F)ccc34)CC1)CCCC2 [RISPERIDONE]	Compound metabolized
CCCC(=O)Nc1ccc(OCC(O)CNC(C)C)c(C(C)=O)c1 (stereo not given) [ACEBUTOLOL]	Compound metabolized

Conditions: human gut metagenome, 24 h, 2 µM
Remark: another data set of the same source

SMILES	Bacterial Biotransformation
CNCCC(Oc1ccc(C(F)(F)F)cc1)c1ccccc1 (stereo not given) [FLUOXETINE]	Compound NOT metabolized
CCc1nc(N)nc(N)c1-c1ccc(Cl)cc1 [PYRIMETHAMINE]	Compound NOT metabolized
Cc1nc2n(c(=O)c1CCN1CCC(c3noc4cc(F)ccc34)CC1)CCCC2 [RISPERIDONE]	Compound metabolized
CCCC(=O)Nc1ccc(OCC(O)CNC(C)C)c(C(C)=O)c1 (stereo not given) [ACEBUTOLOL]	Compound NOT metabolized

Conditions: human gut metagenome, 24 h, 2 µM
Remark: another data set of the same source

SMILES	Bacterial Biotransformation
CNCCC(Oc1ccc(C(F)(F)F)cc1)c1ccccc1 (stereo not given) [FLUOXETINE]	Compound NOT metabolized
CCc1nc(N)nc(N)c1-c1ccc(Cl)cc1 [PYRIMETHAMINE]	Compound NOT metabolized
Cc1nc2n(c(=O)c1CCN1CCC(c3noc4cc(F)ccc34)CC1)CCCC2 [RISPERIDONE]	Compound metabolized
CCCC(=O)Nc1ccc(OCC(O)CNC(C)C)c(C(C)=O)c1 (stereo not given) [ACEBUTOLOL]	Compound metabolized

Conditions: human gut metagenome, 24 h, 2 µM
Remark: another data set of the same source

SMILES	Bacterial Biotransformation
CNCCC(Oc1ccc(C(F)(F)F)cc1)c1ccccc1 (stereo not given) [FLUOXETINE]	Compound metabolized
CCc1nc(N)nc(N)c1-c1ccc(Cl)cc1 [PYRIMETHAMINE]	Compound NOT metabolized
Cc1nc2n(c(=O)c1CCN1CCC(c3noc4cc(F)ccc34)CC1)CCCC2 [RISPERIDONE]	Compound metabolized
CCCC(=O)Nc1ccc(OCC(O)CNC(C)C)c(C(C)=O)c1 (stereo not given) [ACEBUTOLOL]	Compound metabolized
